SMILES strings stand for the structures. Like-named read-outs stand apart in the source and are kept apart here. Where a SMILES comes first, the peptide text is derived from it.

For data set [1], the system named is Swiss albino mice. As to the method:
Swiss albino mice (˜30-40 g) were first placed into their respective chambers with a 20 min pre-treatment recording. Only mice showing at least 50 counts/5 min are used in the experiments. Mice were administered saline (control), peptide (5 or 50 mg/kg) or morphine (50 mg/kg). Experimenters were blind to the identity of the drug solutions. […] Statistical comparison was done by 2-way ANOVA.

Data set [2] deals with Swiss albino mice. As to the method:
Swiss albino mice (˜20-30 g) were first trained on the rotarod, which accelerated from 0-20 rpm over 5 min, prior to the experiment. Only mice that were capable of staying on the rotarod for the entire 5 min period were used in this experiment. Mice were either administered with the peptide (1 or 10 mg/kg, sublingual), or morphine (20 mg/kg, subcutaneous). After drug administration, the animals are placed on the rotarod and the time taken for the mice to slip was recorded (up to 5 min), and subsequently at 1 h, 2 h and 3 h post peptide, and at 30 min, 1 h 30 min and 2 h 30 min post morphine. Statistical comparison was done by either Student's t-test or one-way ANOVA.
The source holds these as a separate data set.

Data set [3] concerns Swiss albino mice. To be noted: mouse, in vivo.
Protocol: Swiss albino mice (30-35 g) were injected with saline, the peptide (5 mg/kg, 50 mg/kg intraperitoneal) or morphine (0.5 mg/kg, 5 mg/kg, 50 mg/kg intraperitoneal). The experimenters are blind to the identity of the solutions. All mice were administered 5 mg charcoal (0.1 ml of 50 mg/ml charcoal solution) via oral gavage immediately after drug administration. At 30 min post-drug/charcoal administration, the mice were sacrificed by cervical dislocation and the GI tract was exposed and the location of the charcoal identified. The distance the charcoal traveled in the intestine from the stomach was measured and expressed as % of total length of the GI tract.
The conditions of data set [4]: cited from earlier work; for bioavailability by the sublingual route: oxytocin in physiological saline solution.
The next data set relates to Sprague-Dawley rats. Put plainly: acute effect on blood pressure in anesthetized rats. In kind it is in vivo. To be noted: for effect on blood pressure: 5 and 20 mg/kg. Here is the method:
Sprague-Dawley rats (˜300 g) were anesthetized and the carotid artery was cannulated for blood pressure measurement. Drugs were administered by the pre-determined route. A pulse transducer was secured across the thoracic region of the rat to allow measurement of respiration rate. Blood pressure was recorded for at least 15 min or until a relatively stable blood pressure was observed.

A short description of data set [5]: pharmacokinetics: plasma concentration by LC/MS/MS after sublingual, intravenous, oral, intraperitoneal administration. In kind it is in vivo, mice. The following applies: mouse. Here is the method: The peptide (1, 5, 15 and 25 mg/kg, 0.5 ml/kg) was administered sublingually to mice. Upon reaching specified time points of 1, 5, 15, 30, 60 and 120 min post-dose, each mouse was sacrificed and blood samples were collected via cardiac puncture. Plasma samples were then extracted and analyzed under LC/MS/MS.
Systemic exposure of the peptide was also studied through intravenous, oral (gavage) and intraperitoneal routes.

In data set [6] the test system is Swiss albino mice. Put plainly: toxicity, multiple dose regimen. In kind it is in vivo. To be noted: 8 or 80 mg/kg intraperitoneal daily, 14 days. As to the method:
(§1) Swiss albino mice were administered with the peptide at 8 mg/kg or 80 mg/kg (intraperitoneal) once daily for 14 days. Control mice received saline. At the end of the period, all mice were killed, dissected and observed for any obvious abnormality. Weights of the major organs, including brain, heart, lung, liver, spleen and kidney, were recorded.

The test system of data set [7] is rats. To be noted: 1 or 50 mg/kg intraperitoneal, vs saline control.
Description: The open field was divided into 16 equal size squares (25×25 cm). The 4 squares at the centre are assigned a low anxiety score (0) while those at the 4 corners are assigned a high anxiety score (2). The remaining 8 squares are assigned a medium score (1). A rat entering each square will be given the score assigned to that square. The sum total obtained within the 5-min test period divided by the number of squares entered is the anxiety score for that rat. Diazepam was used as positive control. Statistical comparison was done by Student's t-test.
In a further data set the test system is mice. Put plainly: acute high dose toxicity. In kind it is in vivo. As to the method: (§2) Acute toxicity was determined by both oral and intravenous administration of the peptide. Three mice were given a dose of peptide at 2 g/kg orally by gavage, 5 ml/kg.
A short description of another data set: acute high dose toxicity. Format: in vivo, mice. To be noted: mouse, in vivo; intravenous, mice. Here is the method:
as §2

The test system of another data set is C57 mice. In kind it is in vivo. The following applies: 8 or 80 mg/kg intraperitoneal once daily for 14 days. As to the method: as §1
The multiple dose toxicity testing was repeated exactly as described above except that C57 mice were used instead of Swiss albino mice. Similar results were obtained in terms of body weights, vital organ weights and behavior of control and treated animals (data not shown).

Data set [8] concerns Swiss albino mice. The data set can be described thus: toxicity, single dose regimen. Format: in vivo. The following applies: single dose 8 or 80 mg/kg intraperitoneal, day 14. Here is the method:
Swiss albino mice were administered with the peptide at 8 mg/kg or 80 mg/kg (intraperitoneal) on day 1 and then observed for 14 days. Control mice received saline. At the end of the period, all mice were sacrificed, dissected and observed for any obvious abnormality. Weights of the major organs, including brain, heart, lung, liver, spleen and kidney, were recorded.

The test system of data set [9] is rats. Put plainly: elevated-plus maze test. The following applies: rat, in vivo. The source says:
Two opposite arms of the elevated-plus maze are enclosed by high walls (closed arms) while the other two are not (open arms). The test animals (rats) naturally prefer and spend more time in the closed aims.

For the compound `CN1CC[C@]23c4c5ccc(O)c4O[C@H]2[C@@H](O)C=C[C@H]3[C@H]1C5` [morphine, reference compound], in the data set on Swiss albino mice [1] (mouse, in vivo), the “locomotor activity vs control” value is listed as “significant increase in locomotive activities”. In addition, the “motor-coordination (time on rotarod)” value in the data set on Swiss albino mice [2] (mouse, in vivo) is reported as “No statistical significant effects”. Further, in the data set on Swiss albino mice [3], the “GI motility (distance traveled by charcoal)” value is given as “dose-dependently decreased GI motility”.

As a reminder, the bioavailability is dose-corrected exposure relative to a reference, in per cent. On to `CC[C@H](C)[C@@H]1NC(=O)[C@H](Cc2ccc(O)cc2)NC(=O)[C@@H](N)CSSC[C@@H](C(=O)N2CCC[C@H]2C(=O)N[C@@H](CC(C)C)C(=O)NCC(N)=O)NC(=O)[C@H](CC(N)=O)NC(=O)[C@H](CCC(N)=O)NC1=O` [oxytocin], for which the bioavailability in [4] (formulation including 0.75% w/w sodium taurocholate (tablet form)) was 27%. For the same compound, the “bioavailability by the sublingual route” value in data set [4] is reported as 0.007-0.07%.

Broadly, the LD50 is the dose expected to kill half of the subjects tested. Higher therefore signals a less toxic substance. With `C[C@@H](O)[C@H](NC(=O)[C@@H]1CCCN1C(=O)[C@H](Cc1ccccc1)NC(=O)[C@@H]1CCCN1C(=O)[C@@H](N)CC(N)=O)C(=O)N[C@@H](Cc1c[nH]c2ccccc12)C(=O)N[C@@H](CCCNC(=N)N)C(=O)N[C@@H](CCCCN)C(=O)N[C@@H](CCCNC(=N)N)C(=O)N1CCC[C@H]1C(=O)NCC(=O)O` [the peptide, NPFPTWRKRPG] (H-NPFPTWRKRPG-OH; N-terminus and C-terminus assumed), the “effect on blood pressure” value in the data set with Sprague-Dawley rats (intravenous route) was “decreased in blood pressure”; in the data set with Sprague-Dawley rats (sublingual or intraperitoneal routes), “did not cause any changes in blood pressure”. The “heart rate and respiration rate” value in the data set on Sprague-Dawley rats (all experiments (5 and 20 mg/kg, all routes)) was “No significant changes”. Besides, in the data set on Swiss albino mice [1] (5 or 50 mg/kg, within 4 h of drug administration), the “locomotor activity vs control” value was “no significant difference”. Also, the “motor-coordination (time on rotarod)” value with Swiss albino mice [2] (1 or 10 mg/kg sublingual, up to 3 h post-dose) is given as “No statistical significant effects”. The compound further gave a bioavailability in data set [5] (25 mg/kg, sublingual route, AUC compared to intravenous route) of 44%. The Tmax in [5] (after sublingual administration, read-out: time of highest level in the plasma (converted)) was 5 min. For the same compound, the organ appearance entry with Swiss albino mice [6] and in the data set with Swiss albino mice [8] was “All organs appeared normal” in each case. In the data set on rats [7], the anxiety score result is “did not show any effect”. Besides, the clinical observation result is “appeared sedated” in the data set on mice (62.5 mg/kg intravenous) and “appeared sedated with much decreased activity” in the data set with mice (2 g/kg oral by gavage). Further, in the data set with mice (125 mg/kg intravenous), the “clinical observation, surviving mice” value is reported as “appeared heavily sedated for several hours”. In “acute high dose toxicity”, this compound had an LD50 at 2 weeks of approximately 125 mg/kg. For the same compound, in the data set with C57 mice, the death entry was “No death occurred”.

On to `CN1C(=O)CN=C(c2ccccc2)c2cc(Cl)ccc21` [diazepam], for which the “time spent in the open or closed arms” value with rats [9] was “reversed the times spent in open and closed arms”.

`NC(=O)CC[C@@H]1NC(=O)[C@H](Cc2ccccc2)NC(=O)[C@H](Cc2ccc(O)cc2)NC(=O)CCSSC[C@@H](C(=O)N2CCC[C@H]2C(=O)N[C@H](CCCN=C(N)N)C(=O)NCC(N)=O)NC(=O)[C@H](CC(N)=O)NC1=O` [desmopressin]: the “bioavailability by the sublingual route” value in data set [4] is recorded as “about 0.25%”.

The values are drawn from patent publication US20120183580A1, “Analgesic Composition for Transbuccal Administration” (priority 2011, published 2012).
